The results in this text go back to patent US11965039B2, “Compstatin analogues and their medical uses” (priority 2018, dated 2024).

pIC50: −log10 of the molar value. Starred links: 1 amine or outer side, 2 acyl side, 3 side chain; linkers in the order of their positions; H or OH if unused. Positions of bridges follow the written chain, without caps; N, C: chain ends. Non-standard residues stand in square brackets, D forms with d. Residues, ends and D or L forms follow the SMILES beside them. Groups on a side chain read outwards from the residue. *: point of attachment. Trp(1-Me) = Cn1cc(C[C@H](N)C(=O)O)c2ccccc21; C18 diacid = O=C(O)CCCCCCCCCCCCCCCCC(=O)*; C16 diacid = O=C(O)CCCCCCCCCCCCCCC(=O)*; γGlu = O=C(O)[C@H](CCC(=O)[*:2])N[*:1]; NMeI = CC[C@H](C)[C@H](NC)C(=O)O; AEEA = NCCOCCOCC(=O)O; Sar = CNCC(=O)O

For one experiment, the system named is classical complement pathway. As to the kind of experiment: In vitro haemolysis assay (inhibition of classical complement pathway). Type of experiment: cell-based, human. The following applies: Table 5, different residues at position 3 of Ac-IC(1)XWQDWGEHRC(1)T-NH2; read-out: IC50, CP hemolysis. The procedure:
The in vitro effect of the compounds of the present invention was assessed by measuring their inhibitory effect of the classical complement pathway in a haemolysis assay. Briefly, compounds of the present invention and reference compounds were dissolved in DMSO and diluted in Tris/Casein Assay Buffer (10 mM Tris, 145 mM NaCl, 0.5 mM MgCl2, 0.15 mM CaCl2), and 0.1% W/V Casein, adjusted to pH 7.4) as 9-point serial dilutions in a 96 well plate. Sensitized sheep red blood cells (RBC) coated with rabbit anti-sheep erythrocyte antiserum (Complement Technology, Inc., TX, USA) were washed in Tris/Casein Assay Buffer. […] from each well of diluted compound was added to a 96-well plate containing 50 μL diluted human serum (Complement Technology, Inc., TX, USA) and incubated for 15 minutes at room temperature. The serum dilution factor was optimized for every serum batch to obtain 70-90% of maximal haemolysis using the protocol. Then 50 μL sensitized sheep red blood cells were added to all wells (10^7 per well). After 30 minutes of incubation at 37 QC with gentle agitation, the reaction was stopped by addition of 50 μL Tris STOP Buffer per well (10 mM EDTA, 10 mM Tris, 145 mM NaCl adjusted to pH 7.4). The RBCs were then removed by centrifugation and the resulting supernatant measured for hemolysis by absorbance at 405 nm. The response was normalized relative to a positive and negative control (vehicle) to calculate the IC50 from the concentration response curve using the 4-parameter logistic (4PL) nonlinear model for curve fitting.
For orientation: pIC50 means −log10 of the IC50, conventionally taken in molar units. Regarding “Ac-IC(1)XWQDWGEHRC(1)T-NH2 [Beta-Homo-lsoleucine, reference compound]”, the pIC50 was less than 5.00.

Staying with this experiment, now noted: human serum, sensitized sheep red blood cells; Table 3, cells printed in μM; read-out: IC50, inhibition of hemolysis.
As a reminder, the IC50 is the point on the concentration scale where inhibition reaches its midpoint. For the compound `CC[C@H](C)[C@H](NC(C)=O)C(=O)N[C@H]1CSSC[C@@H](C(=O)N[C@H](C(N)=O)[C@@H](C)O)NC(=O)[C@H](CCCNC(=N)N)NC(=O)[C@H](Cc2c[nH]cn2)NC(=O)[C@H](Cc2c[nH]cn2)NC(=O)CNC(=O)[C@H](Cc2c[nH]c3ccccc23)NC(=O)[C@H](CC(=O)O)NC(=O)[C@H](CCC(N)=O)NC(=O)[C@H](C(C)C)NC(=O)[C@H](C(C)C)NC1=O` [Ac-compstatin, reference compound], the IC50 was greater than 5 µM.

The experiment is the same for the next values; noted with them: human serum, sensitized sheep red blood cells; Table 3, given as upper bounds; read-out: IC50, inhibition of hemolysis.
As to `CC[C@H](C)[C@H](NC(=O)[C@H](N)Cc1ccc(O)cc1)C(=O)N[C@H]1CSSC[C@@H](C(=O)N(C)[C@H](C(N)=O)[C@@H](C)CC)NC(=O)[C@H](CCCNC(=N)N)NC(=O)[C@H](Cc2c[nH]cn2)NC(=O)[C@H](C)NC(=O)CN(C)C(=O)[C@H](Cc2c[nH]c3ccccc23)NC(=O)[C@H](CC(=O)O)NC(=O)[C@H](CCC(N)=O)NC(=O)[C@H](Cc2cn(C)c3ccccc23)NC(=O)[C@H]([C@@H](C)CC)NC1=O` [Compound 48, H-{d}YIC(1)I[1-Me-Trp]QDW[Sar]AHRC(1)[N-Me-Ile]-NH2] (H-[dY]ICI[Trp(1-Me)]QDW[Sar]AHRC[NMeI]-NH2; disulfide 3-13), the pIC50 is greater than 7.00. As for `CC[C@H](C)[C@@H]1NC(=O)[C@@H](NC(=O)[C@H](Cc2ccccc2)NC(=O)[C@H](CCC(=O)O)NC(=O)[C@H](CO)NC(C)=O)CSSC[C@@H](C(=O)N(C)CC(=O)N[C@@H](CCC(=O)O)C(=O)NCC(=O)N[C@@H](CCC(=O)O)C(=O)NCCOCCOCC(=O)NCCOCCOCC(=O)N[C@@H](CCCCNC(=O)CC[C@H](NC(=O)CNC(=O)CC[C@H](NC(=O)CCCCCCCCCCCCCCCCC(=O)O)C(=O)O)C(=O)O)C(N)=O)NC(=O)[C@H](CCCNC(=N)N)NC(=O)[C@H](Cc2c[nH]cn2)NC(=O)[C@H](CCC(=O)O)NC(=O)CNC(=O)[C@H](Cc2c[nH]c3ccccc23)NC(=O)[C@H](CC(=O)O)NC(=O)[C@H](CCC(N)=O)NC(=O)[C@H](Cc2cn(C)c3ccccc23)NC1=O` [Compound 123] (Ac-SEFCI[Trp(1-Me)]QDWGEHRC[Sar]EGE[AEEA][AEEA]K([γGlu-Gly-γGlu-C18 diacid])-NH2; disulfide 4-14), the pIC50 was greater than 7.00. `CC[C@H](C)[C@@H]1NC(=O)[C@@H](NC(=O)[C@H](Cc2ccc(O)cc2)NC(=O)[C@H](CCC(=O)O)NC(=O)[C@H](CO)NC(C)=O)CSSC[C@@H](C(=O)N(C)CC(=O)N[C@@H](CCC(=O)O)C(=O)NCC(=O)N[C@@H](C)C(=O)N[C@@H](CCCCNC(=O)COCCOCCNC(=O)CC[C@H](NC(=O)COCCOCCNC(=O)CNC(=O)CC[C@H](NC(=O)CCCCCCCCCCCCCCCCC(=O)O)C(=O)O)C(=O)O)C(N)=O)NC(=O)[C@H](CCCNC(=N)N)NC(=O)[C@H](Cc2c[nH]cn2)NC(=O)[C@H](CCC(=O)O)NC(=O)CNC(=O)[C@H](Cc2c[nH]c3ccccc23)NC(=O)[C@H](CCC(=O)O)NC(=O)[C@H](CCC(N)=O)NC(=O)[C@H](Cc2cn(C)c3ccccc23)NC1=O` [Compound 122] (Ac-SEYCI[Trp(1-Me)]QEWGEHRC[Sar]EGAK([AEEA-γGlu-AEEA-Gly-γGlu-C18 diacid])-NH2; disulfide 4-14): the pIC50 was greater than 6.30. Still for that read-out and setting: the figure for `CC[C@H](C)[C@H](NC(C)=O)C(=O)N[C@H]1CSSC[C@@H](C(=O)N[C@H](C(N)=O)[C@@H](C)O)NC(=O)[C@H](CCCNC(=N)N)NC(=O)[C@H](Cc2c[nH]cn2)NC(=O)[C@H](CO)NC(=O)CNC(=O)[C@H](Cc2c[nH]c3ccccc23)NC(=O)[C@H](CC(=O)O)NC(=O)[C@H](CCC(N)=O)NC(=O)[C@H](Cc2c[nH]c3ccccc23)NC(=O)[C@H]([C@@H](C)CC)NC1=O` [Compound 6] (Ac-ICIWQDWGSHRCT-NH2; disulfide 2-12) is greater than 6.60. Still for that read-out and setting: the figure for `CC[C@H](C)[C@@H]1NC(=O)[C@@H](NC(=O)[C@@H](NC(=O)[C@H](CCC(=O)O)NC(C)=O)[C@@H](C)CC)CSSC[C@@H](C(=O)N[C@H](C(=O)N[C@@H](CCC(=O)O)C(=O)NCC(=O)N[C@@H](CCC(=O)O)C(N)=O)[C@@H](C)O)NC(=O)[C@H](CCCNC(=N)N)NC(=O)[C@H](Cc2c[nH]cn2)NC(=O)[C@H](CCC(=O)O)NC(=O)CNC(=O)[C@H](Cc2c[nH]c3ccccc23)NC(=O)[C@H](CC(=O)O)NC(=O)[C@H](CCC(N)=O)NC(=O)[C@H](Cc2c[nH]c3ccccc23)NC1=O` [Compound 34] (Ac-EICIWQDWGEHRCTEGE-NH2; disulfide 3-13) is greater than 6.60; for `CC[C@H](C)[C@H](NC(C)=O)C(=O)N[C@H]1CSSC[C@@H](C(=O)N[C@H](C(N)=O)[C@@H](C)O)NC(=O)[C@H](CO)NC(=O)[C@H](Cc2c[nH]cn2)NC(=O)[C@H](CCC(=O)O)NC(=O)CNC(=O)[C@H](Cc2c[nH]c3ccccc23)NC(=O)[C@H](CC(=O)O)NC(=O)[C@H](CCC(N)=O)NC(=O)[C@H](Cc2c[nH]c3ccccc23)NC(=O)[C@H]([C@@H](C)CC)NC1=O` [Compound 20] (Ac-ICIWQDWGEHSCT-NH2; disulfide 2-12) it is greater than 7.00; for `CC[C@H](C)[C@@H]1NC(=O)[C@@H](NC(=O)[C@H](Cc2ccccc2)NC(=O)[C@H](CCC(=O)O)NC(=O)[C@H](CO)NC(C)=O)CSSC[C@@H](C(=O)N(C)CC(=O)N[C@@H](CCC(=O)O)C(=O)NCC(=O)N[C@@H](CCC(=O)O)C(=O)N[C@@H](CO)C(=O)N[C@@H](CCC(=O)O)C(=O)N[C@@H](CO)C(=O)N[C@@H](CCCCNC(=O)CC[C@H](NC(=O)CNC(=O)CC[C@H](NC(=O)CCCCCCCCCCCCCCCCC(=O)O)C(=O)O)C(=O)O)C(N)=O)NC(=O)[C@H](CCCNC(=N)N)NC(=O)[C@H](Cc2c[nH]cn2)NC(=O)[C@H](CCC(=O)O)NC(=O)CNC(=O)[C@H](Cc2c[nH]c3ccccc23)NC(=O)[C@H](CC(=O)O)NC(=O)[C@H](CCC(N)=O)NC(=O)[C@H](Cc2cn(C)c3ccccc23)NC1=O` [Compound 139] (Ac-SEFCI[Trp(1-Me)]QDWGEHRC[Sar]EGESESK([γGlu-Gly-γGlu-C18 diacid])-NH2; disulfide 4-14) it is greater than 7.00. Turning to `CC[C@H](C)[C@H](NC(C)=O)C(=O)N[C@H]1CSSC[C@@H](C(=O)N[C@H](C(=O)N[C@@H](CCC(=O)O)C(=O)NCC(=O)N[C@@H](CCCCNC(=O)COCCOCCNC(=O)COCCOCCNC(=O)CC[C@H](NC(=O)CCCCCCCCCCCCCCC(=O)O)C(=O)O)C(N)=O)[C@@H](C)O)NC(=O)[C@H](CCCNC(=N)N)NC(=O)[C@H](Cc2c[nH]cn2)NC(=O)[C@H](CCC(=O)O)NC(=O)CNC(=O)[C@H](Cc2c[nH]c3ccccc23)NC(=O)[C@H](CC(=O)O)NC(=O)[C@H](CCC(N)=O)NC(=O)[C@H](Cc2c[nH]c3ccccc23)NC(=O)[C@H]([C@@H](C)CC)NC1=O` [Compound 93] (Ac-ICIWQDWGEHRCTEGK([AEEA-AEEA-γGlu-C16 diacid])-NH2; disulfide 2-12), the pIC50 was greater than 6.30. Same read-out and setting: in the case of `CC[C@H](C)[C@H](NC(C)=O)C(=O)N[C@H]1CSSC[C@@H](C(=O)N[C@H](C(=O)NCC(=O)N[C@@H](C)C(=O)N[C@@H](CCC(=O)O)C(=O)N[C@@H](CO)C(N)=O)[C@@H](C)O)NC(=O)[C@H](CCCNC(=N)N)NC(=O)[C@H](Cc2c[nH]cn2)NC(=O)[C@H](C)NC(=O)CNC(=O)[C@H](Cc2c[nH]c3ccccc23)NC(=O)[C@H](CCCCN)NC(=O)[C@H](CCC(N)=O)NC(=O)[C@H](Cc2c[nH]c3ccccc23)NC(=O)[C@H]([C@@H](C)CC)NC1=O` [Compound 8] (Ac-ICIWQKWGAHRCTGAES-NH2; disulfide 2-12) it was greater than 6.30. Consider `CC[C@H](C)[C@@H]1NC(=O)[C@@H](NC(=O)[C@H](Cc2ccc(O)cc2)NC(=O)[C@H](CCC(=O)O)NC(=O)[C@H](CO)NC(C)=O)CSSC[C@@H](C(=O)N(C)CC(=O)N[C@@H](CCC(=O)O)C(=O)N[C@@H](CCCCN)C(=O)N[C@@H](CCC(=O)N[C@@H](C)C(=O)N[C@@H](CCCCNC(=O)COCCOCCNC(=O)CC[C@H](NC(=O)COCCOCCNC(=O)CNC(=O)CC[C@H](NC(=O)CCCCCCCCCCCCCCCCC(=O)O)C(=O)O)C(=O)O)C(N)=O)C(=O)O)NC(=O)[C@H](CCCNC(=N)N)NC(=O)[C@H](Cc2c[nH]cn2)NC(=O)[C@H](CCC(=O)O)NC(=O)CN(C)C(=O)[C@H](Cc2c[nH]c3ccccc23)NC(=O)[C@H](CCC(=O)O)NC(=O)[C@H](CCC(N)=O)NC(=O)[C@H](Cc2cn(C)c3ccccc23)NC1=O` [Compound 121, Ac-SEYC(1)I[1-Me-Trp]QEW[Sar]EHRC(1)[Sar]EK[γGlu]A-K([17-carboxy-heptadecanoyl][γGlu]G[Peg3][γGlu][Peg3])-NH2] (Ac-SEYCI[Trp(1-Me)]QEW[Sar]EHRC[Sar]EK[γGlu]AK([AEEA-γGlu-AEEA-Gly-γGlu-C18 diacid])-NH2; disulfide 4-14), for which the pIC50 was greater than 6.60.

Staying with this experiment, now noted: human serum, sensitized sheep red blood cells; Table 4, valine 3 vs isoleucine 3 pairs; read-out: CP hemolysis IC50.
As for `CC[C@H](C)[C@H](NC(C)=O)C(=O)N[C@H]1CSSC[C@@H](C(=O)N[C@H](C(N)=O)[C@@H](C)O)NC(=O)[C@H](CCCNC(=N)N)NC(=O)[C@H](Cc2c[nH]cn2)NC(=O)[C@H](CO)NC(=O)CNC(=O)[C@H](Cc2c[nH]c3ccccc23)NC(=O)[C@H](CC(=O)O)NC(=O)[C@H](CCC(N)=O)NC(=O)[C@H](Cc2c[nH]c3ccccc23)NC(=O)[C@H]([C@@H](C)CC)NC1=O` [Compound 6] (Ac-ICIWQDWGSHRCT-NH2; disulfide 2-12), the pIC50 is 6.85. Still for that read-out and setting: in the case of `CC[C@H](C)[C@H](NC(C)=O)C(=O)N[C@H]1CSSC[C@@H](C(=O)N[C@H](C(N)=O)[C@@H](C)O)NC(=O)[C@H](CO)NC(=O)[C@H](Cc2c[nH]cn2)NC(=O)[C@H](CCC(=O)O)NC(=O)CNC(=O)[C@H](Cc2c[nH]c3ccccc23)NC(=O)[C@H](CC(=O)O)NC(=O)[C@H](CCC(N)=O)NC(=O)[C@H](Cc2c[nH]c3ccccc23)NC(=O)[C@H]([C@@H](C)CC)NC1=O` [Compound 20] (Ac-ICIWQDWGEHSCT-NH2; disulfide 2-12) it was 7.23.
